Measurements taken from patent US8586611B2 (priority 2005, dated 2013).

Columns and labels:
Type in all cases: in vivo
[1] = tested on: Pseudoperonospora cubensis; assay: Test A: cucumber downy mildew, spray the day before inoculation (disease rating, 100 = 100% disease control)
Summary of the method: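 Cucumber seedlings were sprayed to run-off with compound suspended in acetone/water containing 250 ppm Trem 014 (200 ppm equated to 500 g/ha), then inoculated with P. cubensis spores the next day. Plants were kept 24 h at 20 °C in saturated humidity, then 6 days at 20 °C, before disease rating relative to controls.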

[2] = tested on: Plasmopara viticola; assay: Test B: grape downy mildew, spray 24 h after inoculation (disease rating, 100 = 100% disease control)
Summary of the method: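 This is a curative spray test, applied 24 h after inoculation. Compounds in 50/50 acetone–water with 250 ppm Trem 014 surfactant were sprayed to run-off on P. viticola-infected seedlings, with 200 ppm equating to 500 g/ha. Plants were kept 5 days in a 20 °C growth chamber, then 24 h humid, and scored 0–100 for disease control relative to controls.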

[3] = tested on: Phytophthora infestans; assay: whole plant or invertebrate; details: tomato late blight
[4] = tested on: Erysiphe graminis f. sp. tritici; assay: Test E: wheat powdery mildew, spray the day before inoculation (disease rating, 100 = 100% disease control)
Summary of the method: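 Protective test: spores of E. graminis f. sp. tritici dusted on wheat seedlings one day after run-off spraying of test suspension (acetone/water with 250 ppm surfactant; 200 ppm = 500 g/ha). Ratings after 7 days in growth chamber at 20° C, 100 = full control, 0 = none, relative to controls.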

[5] = tested on: Pseudoperonospora cubensis; assay: Test F: cucumber downy mildew, DMSO/acetone/water test suspension, spray the day before inoculation (disease rating, 100 = 100% disease control)
Summary of the method: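 Cucumber seedlings inoculated with spores one day after spraying with the test suspension (4% DMSO in acetone/water 30/70; 250 ppm ≈ 250 g/ha). Kept 24 h in saturated air, then 6 days in a growth chamber, both at 20° C. Scored as % disease control versus untreated (100 = full control).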

[6] = spray the day before inoculation, compounds without asterisk (not 40 or 10 ppm)
[7] = spray 24 h after inoculation, compounds without asterisk (not 40 or 10 ppm)
[8] = DMSO/acetone/water suspension, spray the day before inoculation, compounds without asterisk
[9] = sprayed the day before inoculation, unmarked compounds (no asterisk, not 40 or 10 ppm)
[10] = sprayed 24 h after inoculation, unmarked compounds (no asterisk, not 40 or 10 ppm)
[11] = sprayed the day before inoculation, 7 days at 20° C., unmarked compounds (no asterisk, not 40 or 10 ppm)
[12] = DMSO/acetone/water test suspension, sprayed the day before inoculation, unmarked compounds (no asterisk)

Cc1ccccc1CC(=O)N1CCC(c2nc(C(=O)N(C)[C@H](C)c3ccccc3)cs2)CC1 [Compound 11]
Test A disease rating (100 = 100% disease control, 0 = no disease control) [1, 6]: 0%
Test B disease rating (100 = 100% disease control, 0 = no disease control) [2, 7]: 31%
Test C disease rating (100 = 100% disease control, 0 = no disease control) [3, 6]: 91%
Test E disease rating (100 = 100% disease control, 0 = no disease control) [4, 6]: 0%
Test F disease rating (100 = 100% disease control, 0 = no disease control) [5, 8]: 97%

C[C@H](c1ccccc1)N(C)C(=O)c1csc(C2CCN(C(=O)Cc3ccc(F)c(Cl)c3)CC2)n1 [compound 35]
Test A disease rating (100 = 100% disease control, 0 = no disease control) [1, 6]: 88%
Test B disease rating (100 = 100% disease control, 0 = no disease control) [2, 7]: 66%
Test C disease rating (100 = 100% disease control, 0 = no disease control) [3, 6]: 93%
Test E disease rating (100 = 100% disease control, 0 = no disease control) [4, 6]: 0%
Test F disease rating (100 = 100% disease control, 0 = no disease control) [5, 8]: 97%

Cc1cccc(CC(=O)N2CCC(c3nc(C(=O)N(C)[C@H](C)c4ccccc4)cs3)CC2)c1 [compound 36]
Test A disease rating (100 = 100% disease control, 0 = no disease control) [1, 6]: 100%
Test B disease rating (100 = 100% disease control, 0 = no disease control) [2, 7]: 99%
Test C disease rating (100 = 100% disease control, 0 = no disease control) [3, 6]: 100%
Test E disease rating (100 = 100% disease control, 0 = no disease control) [4, 6]: 91%
Test F disease rating (100 = 100% disease control, 0 = no disease control) [5, 8]: 95%

C[C@H](c1ccccc1)N(C)C(=O)c1csc(C2CCN(C(=O)Cc3ccc(F)c(F)c3)CC2)n1 [compound 38]
Test A disease rating (100 = 100% disease control, 0 = no disease control) [1, 6]: 0%
Test B disease rating (100 = 100% disease control, 0 = no disease control) [2, 7]: 45%
Test C disease rating (100 = 100% disease control, 0 = no disease control) [3, 6]: 0%
Test E disease rating (100 = 100% disease control, 0 = no disease control) [4, 6]: 55%
Test F disease rating (100 = 100% disease control, 0 = no disease control) [5, 8]: 43%

C[C@H](c1ccccc1)N(C)C(=O)c1csc(C2CCN(C(=O)Cc3cc(C(F)(F)F)ccc3Cl)CC2)n1 [compound 39]
Test A disease rating (100 = 100% disease control, 0 = no disease control) [1, 6]: 100%
Test B disease rating (100 = 100% disease control, 0 = no disease control) [2, 7]: 100%
Test C disease rating (100 = 100% disease control, 0 = no disease control) [3, 6]: 100%
Test E disease rating (100 = 100% disease control, 0 = no disease control) [4, 6]: 85%
Test F disease rating (100 = 100% disease control, 0 = no disease control) [5, 8]: 100%

COc1ccccc1CC(=O)N1CCC(c2nc(C(=O)N(C)[C@H](C)c3ccccc3)cs2)CC1 [compound 41]
Test A disease rating (100 = 100% disease control, 0 = no disease control) [1, 6]: 100%
Test B disease rating (100 = 100% disease control, 0 = no disease control) [2, 7]: 94%
Test C disease rating (100 = 100% disease control, 0 = no disease control) [3, 6]: 100%
Test E disease rating (100 = 100% disease control, 0 = no disease control) [4, 6]: 0%
Test F disease rating (100 = 100% disease control, 0 = no disease control) [5, 8]: 82%

C[C@H](c1ccccc1)N(C)C(=O)c1csc(C2CCN(C(=O)Cc3cc(F)ccc3F)CC2)n1 [compound 44]
Test A disease rating (100 = 100% disease control, 0 = no disease control) [1, 6]: 97%
Test B disease rating (100 = 100% disease control, 0 = no disease control) [2, 7]: 57%
Test C disease rating (100 = 100% disease control, 0 = no disease control) [3, 6]: 98%
Test E disease rating (100 = 100% disease control, 0 = no disease control) [4, 6]: 21%
Test F disease rating (100 = 100% disease control, 0 = no disease control) [5, 8]: 0%

Cc1ccc(C)c(CC(=O)N2CCC(c3nc(C(=O)N(C)[C@H](C)c4ccccc4)cs3)CC2)c1 [compound 47]
Test A disease rating (100 = 100% disease control, 0 = no disease control) [1, 6]: 100%
Test B disease rating (100 = 100% disease control, 0 = no disease control) [2, 7]: 100%
Test C disease rating (100 = 100% disease control, 0 = no disease control) [3, 6]: 100%
Test E disease rating (100 = 100% disease control, 0 = no disease control) [4, 6]: 96%
Test F disease rating (100 = 100% disease control, 0 = no disease control) [5, 8]: 100%

CN(CCc1ccccc1)C(=O)c1csc(C2CCN(C(=O)Cc3ccccc3Cl)CC2)n1 [compound 162]
Test A disease rating (100 = 100% disease control, 0 = no disease control) [1, 6]: 0%
Test B disease rating (100 = 100% disease control, 0 = no disease control) [2, 7]: 14%
Test C disease rating (100 = 100% disease control, 0 = no disease control) [3, 6]: 15%
Test E disease rating (100 = 100% disease control, 0 = no disease control) [4, 6]: 42%
Test F disease rating (100 = 100% disease control, 0 = no disease control) [5, 8]: 43%

CC(C)(NC(=O)c1csc(C2CCN(C(=O)Cc3ccccc3Cl)CC2)n1)c1ccccc1 [compound 263]
Test A disease rating (100 = 100% disease control, 0 = no disease control) [1, 9]: 92
Test B disease rating (100 = 100% disease control, 0 = no disease control) [2, 10]: 0
Test C disease rating (100 = 100% disease control, 0 = no disease control) [3, 9]: 15
Test E disease rating (100 = 100% disease control, 0 = no disease control) [4, 11]: 0
Test F disease rating (100 = 100% disease control, 0 = no disease control) [5, 12]: 0

O=C(NCCc1ccccc1)c1csc(C2CCN(C(=O)Cc3ccccc3Cl)CC2)n1 [compound 264]
Test A disease rating (100 = 100% disease control, 0 = no disease control) [1, 9]: 96
Test B disease rating (100 = 100% disease control, 0 = no disease control) [2, 10]: 20
Test C disease rating (100 = 100% disease control, 0 = no disease control) [3, 9]: 0
Test E disease rating (100 = 100% disease control, 0 = no disease control) [4, 11]: 68
Test F disease rating (100 = 100% disease control, 0 = no disease control) [5, 12]: 93

O=C(NC1CCCc2ccccc21)c1csc(C2CCN(C(=O)Cc3ccccc3Cl)CC2)n1 (stereo not drawn) [compound 266]
Test A disease rating (100 = 100% disease control, 0 = no disease control) [1, 9]: 100
Test B disease rating (100 = 100% disease control, 0 = no disease control) [2, 10]: 6
Test C disease rating (100 = 100% disease control, 0 = no disease control) [3, 9]: 57
Test E disease rating (100 = 100% disease control, 0 = no disease control) [4, 11]: 42
Test F disease rating (100 = 100% disease control, 0 = no disease control) [5, 12]: 86

N#CC(NC(=O)c1csc(C2CCN(C(=O)Cc3cccc(Br)c3)CC2)n1)c1ccccc1 (stereo not drawn) [compound 282]
Test A disease rating (100 = 100% disease control, 0 = no disease control) [1, 9]: 55
Test B disease rating (100 = 100% disease control, 0 = no disease control) [2, 10]: 8
Test C disease rating (100 = 100% disease control, 0 = no disease control) [3, 9]: 0
Test E disease rating (100 = 100% disease control, 0 = no disease control) [4, 11]: 0
Test F disease rating (100 = 100% disease control, 0 = no disease control) [5, 12]: 39

N-(2,3-dihydro-2,2-dimethyl-1H-inden-1-yl)-N-methyl-2-[1-[[5-methyl-3-(trifluoromethyl)-1H-pyrazol-1-yl]acetyl]-4-piperidinyl]-4-thiazolecarboxamide [Compound 222]
Test A disease rating (100 = 100% disease control, 0 = no disease control) [1, 6]: 100%
Test B disease rating (100 = 100% disease control, 0 = no disease control) [2, 7]: 99%
Test C disease rating (100 = 100% disease control, 0 = no disease control) [3, 6]: 99%
Test E disease rating (100 = 100% disease control, 0 = no disease control) [4, 6]: 21%
Test F disease rating (100 = 100% disease control, 0 = no disease control) [5, 8]: 100%

N-(2,3-dihydro-2-methyl-1H-inden-1-yl)-N-methyl-2-[1-[[5-methyl-3-(trifluoromethyl)-1H-pyrazol-1-yl]acetyl]-4-piperidinyl]-4-thiazolecarboxamide [Compound 226]
Test A disease rating (100 = 100% disease control, 0 = no disease control) [1, 6]: 100%
Test B disease rating (100 = 100% disease control, 0 = no disease control) [2, 7]: 0%
Test C disease rating (100 = 100% disease control, 0 = no disease control) [3, 6]: 93%
Test E disease rating (100 = 100% disease control, 0 = no disease control) [4, 6]: 0%
Test F disease rating (100 = 100% disease control, 0 = no disease control) [5, 8]: 99%
